In patent US9487481B2, “Bicyclic compounds” (BRISTOL-MYERS SQUIBB COMPANY, priority 2013, dated 2016):
“And” between values parts separate entries of the source, which are not always exact repeats. Identical values can stand only once. Blank lines part the entries; values can stand above or below the molecule they belong to.

Tests used:
[1] = tested on: circulating lymphocytes; experiment: Rat Blood Lymphocyte Reduction (BLR) Assay; assay type: in vivo; details: Lewis rats, oral, 24 hr post-dose; for Percent reduction vs. control (rat blood lymphocytes): hydrochloride
Protocol: (§1) Lewis rats were dosed orally with vehicle alone (polyethylene glycol 300, “PEG300”) or with 2-amino-2-[2-(4-octylphenyl)ethyl]-1,3-propanediol, hydrochloride (CAS: 162359-56-0) as a solution in the vehicle at doses of 0.1 mg/kg, 0.5 mg/kg and 3.0 mg/kg adjusted to reflect the free amount of test article. The results are provided in Table 4a and the level of lymphocyte reduction at 24 hours post-dose was maximal at 3.0 mg/kg. The percent reduction in lymphocytes is dose-related but the relationship is not linear, with non-proportional increases in dose being required to elicit sequentially greater reductions in lymphocyte counts. […] BALB/c mice were dosed orally with vehicle alone (polyethylene glycol 300, “PEG300”) or with Example 1, Example 2, Compound 6, Compound 8, or Comparative Compound 11. Compounds were dosed as a solution or suspension in the vehicle, adjusted to reflect the free amount of test article in the event that salt forms are utilized. Blood was drawn at 24 hr and blood lymphocyte counts were determined on an ADVIA® 120 Hematology Analyzer (Siemens Healthcare Diagnostics). The results were measured as a reduction in the percentage of circulating lymphocytes as compared to the vehicle treated group at the time of measurement. The results represent the average results of all animals within each treatment group (n=2-4).

[2] = tested on: circulating lymphocytes; experiment: Mouse Blood Lymphocyte Reduction (BLR) Assay; assay type: in vivo; details: BALB/c mice, oral, 1 mg/kg, 24 hr post-dose
Protocol: as §1

[3] = tested on: mice; experiment: Pulmonary Toxicity Assay (BAL protein); assay type: in vivo; details: oral, 30 mg/kg, 24 hr post-dose; for Relative BAL protein vs. control: >1 = increased pulmonary toxicity
Protocol: The analysis of protein levels in bronchoalveolar lavage (BAL) fluid obtained from an animal were used to gauge pulmonary side effects. Increased levels of protein in BAL fluid were indicative of undesired pulmonary effects, such as pulmonary edema. Example 1, Example 2, Compound 6, Compound 8, and Compound 11 were administered orally to mice at a dose of 30 mg/kg. At 24 hours post dose, the mice were euthanized with intraperitoneal barbiturate overdose. The animals were placed in a supine position, a skin incision was made and blunt dissection followed to expose the trachea. The trachea was incised and a catheter was inserted 4-6 mm into the trachea. Phosphate-buffered saline (PBS; 1 mL/mouse) was infused into the lungs and then aspirated. The concentration of the BAL protein in the recovered BAL fluid was determined on an ADVIA® 1800 Chemistry Analyzer (Siemens Healthcare Diagnostics). The results represent the average results of all animals within each treatment group (n=2-4).
A value for the relative BAL protein versus control of greater than 1 indicated an increase in pulmonary toxicity compared to the administration of vehicle only. In this study, as reported in Table 5, the administration of Examples 1 and 2 gave relative BAL protein levels of 0.99 and 0.96, indicating no increase in the pulmonary toxicity. The administration of Compound 8 gave a relative BAL protein level of 1.03, which indicated slight or no increase in pulmonary toxicity. In contrast, administration of Compound 6 and Compound 11 gave relative BAL protein levels of 1.94 and 1.33, indicating increased pulmonary toxicity.

[4] = target: T1, GFP-tagged S1P1 receptor (Homo sapiens, UniProt P21453); experiment: S1P1 Receptor Internalization Assay; assay type: cell-based; details: CHO-K1 cells expressing GFP-tagged S1P1, 45 min
T1 construct: expressed in transfected cells; host or cells: CHO-K1 cells
Protocol: CHO-K1 cells expressing a GFP-tagged S1P1 receptor were plated in 384-well poly-D-lysine coated tissue culture plates at 4×10^3 cells/well in 50 μl assay media (F12 with L-glutamine, 10% charcoal/dextran-treated FBS, 1× penicillin-streptomycin, 1M HEPES). Cell plates were incubated overnight at 37° C./5% CO2. Test compound were introduced to the cell plate from a compound source plate at 11 point, 3 fold serial dilutions and then the assay plates were incubated at 37° C./5% CO2 for 45 min. Cells were fixed and stained with 6% formaldehyde and 15 μg/ml Hoechst dye in PBS (Ca^2+/Mg^2+ free) at room temperature for 15 minutes. Cell plates were washed 4 times with PBS (Ca^2+/Mg^2+ free) with addition of 50 μl/PBS prior to plate sealing. Images were acquired by the Cellomics ARRAYSCAN® VTI high content imager. Data analysis for EC50 determination relative to internal control compound was accomplished using the Compartmental Analysis BioApplication on the Array Scan. The EC50 is defined as the agonist concentration that corresponds to 50% of the Ymax (maximal response) obtained for each individual compound tested and was quantified using the 4 parameter logistic equation to fit the data.

[5] = tested on: Male Lewis rats; experiment: Rat Adjuvant Induced Arthritis Assay (AA); assay type: in vivo; details: prophylactic
Protocol: The rat adjuvant-induced arthritis model is an animal model for human rheumatoid arthritis.
Male Lewis rats (150-175 g; Harlan, n=8 treatment group) were immunized at the base of the tail with 100 μl of 10 mg/ml freshly ground Mycobacterium butyricum (Difco Laboratories) in incomplete Freund's adjuvant (sigma). Animals were dosed once daily with the test article (as a solution or suspension in the vehicle) or vehicle alone (polyethylene glycol 300, “PEG300”) starting from the day of immunization. The volumes of their hind paws were measured in a water displacement plethysmometer (Ugo Basile, Italy). The baseline paw measurements were taken before onset of the disease (between day 7 to day 10). The paw measurements were then taken three times a week until the end of the study on day 20 to 21. All procedures involving animals were reviewed and approved by the Institutional Animal Care Use Committee.
Example 2 of the present invention was tested in the Rat Adjuvant Induced Arthritis assay described hereinabove and the results are shown in Table 7.

[6] = tested on: Male MRL/lpr mice; experiment: MRL/lpr Mouse Model of Spontaneous Lupus Erythematosus Assay; assay type: in vivo
Protocol: MRL/lpr mouse model of spontaneous lupus erythematosus assay is an animal model for spontaneous lupus erythematosus.
Male MRL/lpr mice (14 weeks old; Jackson Laboratories; n=12-13) were orally dosed with Example 2 (as a solution in vehicle) or vehicle alone (polyethylene glycol 300) twice a week for 11 weeks starting on day 0. Urine protein levels (by Albustix) were measured on day 0 and throughout the study. […] Additional groups of mice received a daily oral dose of dexamethasone (Dex) either independently or in combination with twice weekly dosing with Example 2. Urine protein levels (by Albustix) were measured on day 0 and throughout the study. […] All procedures involving animals were reviewed and approved by the Institutional Animal Care Use Committee.
Example 2 was tested in the MRL/lpr mouse model of spontaneous lupus erythematosus assay described hereinabove and the results are shown in Table 9.
Example 2 and dexamethasone (Dex) either independently or in combination, were tested in the MRL/lpr mouse model of spontaneous lupus erythematosus assay described hereinabove and the results are shown in Table 10.

[7] = tested on: CB-17 SCID mice; experiment: Mouse T Cell Transfer Induced Colitis Assay; assay type: in vivo; details: q.o.d. oral; for Inflammation/Damage (Histology), Mean: 6 wk
Protocol: The mouse T Cell transfer induced colitis assay is an animal model for human colitis.
Colitis was induced in CB-17 SCID mice by the adoptive transfer of FACS sorted CD4^+CD45RB^high T cells from BALB/c mice (3×10^5/mouse, i.p.). Disease activities were monitored once a week for the initial 3 weeks and 3×/week for the subsequent weeks on the basis of body weight, soft stool or diarrhea, and anorectal prolapse. Animals were dosed orally every other day (q.o.d.) with the test article or vehicle starting from the day of T cell transfer. Mice were sacrificed 6 wk after T cell reconstitution and analyzed for bowel inflammation based on histological examination of H&E stained colon tissues. All procedures involving animals were reviewed and approved by the Institutional Animal Care Use Committee.
Example 2 was tested in the mouse T cell transfer induced colitis model described hereinabove and the results are shown in Table 8.

[8] = target: T2, S1P1 (Homo sapiens, UniProt P21453); experiment: S1P1 Binding Assay (33P-S1P ligand, CHO membranes); details: membranes from CHO cells expressing human S1P1, 0.03 nM 33P-S1P
[9] = target: EDG3 equivalent S1P3 (Homo sapiens, UniProt Q99500); experiment: Receptor [35S] GTPγS Binding Assay, EDG3-Ga15-bla HEK293T cell membranes; assay type: biochemical; details: membranes prepared from EDG3-Ga15-bla HEK293T cells
[10] = target: T2, S1P1; experiment: Receptor [35S] GTPγS Binding Assay, S1P1/CHO cell membranes; assay type: biochemical; details: membranes prepared from S1P1/CHO cells

T2 sequence (P21453 whole entry): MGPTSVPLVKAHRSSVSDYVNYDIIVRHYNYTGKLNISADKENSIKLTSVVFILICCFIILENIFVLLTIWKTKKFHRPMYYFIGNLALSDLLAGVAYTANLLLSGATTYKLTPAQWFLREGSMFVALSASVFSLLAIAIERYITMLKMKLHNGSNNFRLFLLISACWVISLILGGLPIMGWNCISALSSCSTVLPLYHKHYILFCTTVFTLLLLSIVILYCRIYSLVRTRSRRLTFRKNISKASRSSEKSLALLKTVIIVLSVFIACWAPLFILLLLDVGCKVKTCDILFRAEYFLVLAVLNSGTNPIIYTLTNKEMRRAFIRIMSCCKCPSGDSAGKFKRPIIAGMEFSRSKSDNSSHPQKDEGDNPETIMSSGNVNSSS
T1 sequence (P21453 whole entry): as above
EDG3 equivalent S1P3, sequence (Q99500 whole entry): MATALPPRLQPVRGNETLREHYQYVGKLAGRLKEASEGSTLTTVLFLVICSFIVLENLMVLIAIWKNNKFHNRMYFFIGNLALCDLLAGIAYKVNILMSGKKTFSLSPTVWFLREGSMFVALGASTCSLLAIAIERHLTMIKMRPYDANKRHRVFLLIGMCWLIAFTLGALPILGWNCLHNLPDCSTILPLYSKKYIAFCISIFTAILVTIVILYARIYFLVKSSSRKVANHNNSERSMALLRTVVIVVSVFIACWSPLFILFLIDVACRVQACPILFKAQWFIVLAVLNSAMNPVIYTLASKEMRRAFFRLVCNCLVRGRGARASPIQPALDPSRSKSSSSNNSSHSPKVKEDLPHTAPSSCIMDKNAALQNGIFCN

SMILES: CCCCCCCCc1ccc(CCC(N)(CO)CO)cc1.Cl [2-amino-2-[2-(4-octylphenyl)ethyl]-1,3-propanediol, hydrochloride]
Rat blood lymphocytes, Compound Mean ([1]; 0.1 mg/kg): 2.78 | Percent reduction vs. control (rat blood lymphocytes) ([1]; 0.1 mg/kg): 69% | Rat blood lymphocytes, Compound Mean ([1]; 0.5 mg/kg): 1.64 | Percent reduction vs. control (rat blood lymphocytes) ([1]; 0.5 mg/kg): 82% | Rat blood lymphocytes, Compound Mean ([1]; 3.0 mg/kg): 1.02 | Percent reduction vs. control (rat blood lymphocytes) ([1]; 3.0 mg/kg): 89%

SMILES: CCCCCC[C@@H]1CCc2cc([C@@H]3CC[C@](N)(CO)C3)ccc2C1 (single isomer, unassigned) [Example 1]
Mouse blood lymphocytes, Compound Mean [2]: 0.7 | Percent reduction vs. control (mouse blood lymphocytes) [2]: 88% | Mouse BAL protein level, Compound Mean [3]: 8.25 mg/dL | Relative BAL protein vs. control [3]: 0.99

SMILES: CCCCCC[C@H]1CCc2cc([C@H]3CC[C@](N)(CO)C3)ccc2C1 [Compound 8, ((1R,3S)-1-amino-3-((S)-6-hexyl-5,6,7,8-tetrahydronaphthalen-2-yl)cyclopentyl)methanol]
Mouse blood lymphocytes, Compound Mean [2]: 2.4 | Percent reduction vs. control (mouse blood lymphocytes) [2]: 59% | Mouse BAL protein level, Compound Mean [3]: 7.5 mg/dL | Relative BAL protein vs. control [3]: 1.03

SMILES: CCCCCC[C@@H]1CCc2cc([C@@H]3CC[C@](N)(COP(=O)(O)O)C3)ccc2C1 [Example 9, ((1R,3R)-1-Amino-3-((R)-6-hexyl-5,6,7,8-tetrahydronaphthalen-2-yl)cyclopentyl)methyl dihydrogen phosphate]
EC50 [4]: 361 nM

SMILES: CCCCCC[C@H]1CCc2cc([C@@H]3CC[C@](N)(CO)C3)ccc2C1 [Compound 6, ((1R,3R)-1-amino-3-((S)-6-hexyl-5,6,7,8-tetrahydronaphthalen-2-yl)cyclopentyl)methanol]
Mouse blood lymphocytes, Compound Mean [2]: 1.2 | Percent reduction vs. control (mouse blood lymphocytes) [2]: 78% | Mouse BAL protein level, Compound Mean [3]: 14.3 mg/dL | Relative BAL protein vs. control [3]: 1.94 and 1.96

SMILES: CCCCCOc1ccc2cc([C@@H]3CC[C@](N)(CO)C3)ccc2c1 [Comparative Compound 11, reference compound]
Mouse blood lymphocytes, Compound Mean [2]: 2.18 | Percent reduction vs. control (mouse blood lymphocytes) [2]: 52% | Mouse BAL protein level, Compound Mean [3]: 13.3 mg/dL | Relative BAL protein vs. control [3]: 1.33

SMILES: CCCCCC[C@@H]1CCc2cc([C@H]3CC[C@](N)(CO)C3)ccc2C1 (single isomer, unassigned) [Example 2]
Paw Swelling on Day 20, Mean ([5]; 0.15 mg/kg once daily oral): 1.64 mL | Paw Swelling on Day 20, Mean ([5]; 0.5 mg/kg once daily oral): 0.70 mL | Paw Swelling on Day 20, Mean ([5]; 1.5 mg/kg once daily oral): 0.16 mL | % Mice with Proteinurea > 100 mg/dL ([6]; 24 weeks of age, 2 mg/kg, 2x week oral): 20% | % Mice with Proteinurea > 100 mg/dL ([6]; 25 weeks of age, 0.05 mg/kg, 2x week oral): 25% | % Mice with Proteinurea > 100 mg/dL ([6]; 25 weeks of age, 0.4 mg/kg, 2x week oral): 17% | % Mice with Proteinurea > 100 mg/dL ([6]; 25 weeks of age, 2 mg/kg, 2x week oral): 10% | Mouse blood lymphocytes, Compound Mean [2]: 0.54 | Percent reduction vs. control (mouse blood lymphocytes) [2]: 90% | Week 6 Percent Body Weight Changes, Mean (from 100%) ([7]; 1 mg/kg): 100% → 98.7% | Inflammation/Damage (Histology), Mean ([7]; 1 mg/kg): 5.46 | Week 6 Percent Body Weight Changes, Mean (from 100%) ([7]; 5 mg/kg): 100% → 103.7% | Inflammation/Damage (Histology), Mean ([7]; 5 mg/kg): 3.71 | Mouse BAL protein level, Compound Mean [3]: 8.0 mg/dL | Relative BAL protein vs. control [3]: 0.96

IC50 [8]: 0.01 nM | EC50 [9]: > 62500 nM | EC50 [10]: 0.9 nM
SMILES: CCCCCC[C@@H]1CCc2cc([C@H]3CC[C@](N)(COP(=O)(O)O)C3)ccc2C1 [Example 10, (1R,3 S)-1-Amino-3-((R)-6-hexyl-5,6,7,8-tetrahydronaphthalen-2-yl) cyclopentyl)methyl dihydrogen phosphate]

SMILES: C[C@@H]1C[C@H]2[C@@H]3CCC4=CC(=O)C=C[C@]4(C)[C@@]3(F)[C@@H](O)C[C@]2(C)[C@@]1(O)C(=O)CO [Dex, dexamethasone, reference compound]
% Mice with Proteinurea > 100 mg/dL ([6]; 24 weeks of age, 0.1 mg/kg q.d. oral): 50% | % Mice with Proteinurea > 100 mg/dL ([6]; 24 weeks of age, 0.5 mg/kg q.d. oral): 10%
